Literature values in patent US5071850A, “2,3-dihydro-3-arylalkylaminoalkyl-4H-1,3-benzoxazin-4-one derivatives, their preparation and their application as medicinal products which are useful in therapy” (Pierre Fabre Medicament, priority 1988, dated 1991).

Conditions: Finkelstein and Chiang, J. Med. Chem. 11, 1038 (1968); cited from earlier work

CCN(CC)CCN1COc2ccccc2C1=O [3-(2-diethylaminoethyl)-2,3-dihydro-4H-1,3-benzoxazin-4-one]
pharmacological result: inactive
